Experimental data from PMC8849385, “ATP-responsive biomolecular condensates tune bacterial kinase signaling” (Science Advances, 2022).

How the values were obtained:
[1] = target: T1, SpmX (ΔTM) (Caulobacter vibrioides, UniProt A0A0H3C9Y4); test: fluorescence microscopy of condensate dissolution; settings: 5 μM protein, 5% Cy3 labelled; 5 mM MgCl2, 100 mM KCl, pH 7.4, 1 hour; solute effect on phase separation, no binding constant
T1 construct: cytoplasmic portion, AA 1 to 355 of 431, C-terminal TEV-His10 cleaved; E. coli BL21(DE3)

[2] = target: T2, PopZ (Caulobacter vibrioides, UniProt A0A0H3C7Y4); test: fluorescence microscopy of condensate dissolution; settings: 5 μM protein, 1% Atto488 labelled; 5 mM MgCl2, 100 mM KCl, pH 7.4, 1 hour; solute effect on phase separation, no binding constant
T2 construct: full length, AA 1 to 177, C-terminal TEV-His6 cleaved; E. coli BL21(DE3)
T2 sequence (A0A0H3C7Y4 entry or part of it): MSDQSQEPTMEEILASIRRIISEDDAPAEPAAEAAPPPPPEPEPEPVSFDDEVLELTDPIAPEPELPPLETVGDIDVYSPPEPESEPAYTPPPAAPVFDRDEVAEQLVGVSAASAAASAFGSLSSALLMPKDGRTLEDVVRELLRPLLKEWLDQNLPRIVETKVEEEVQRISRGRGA

T1 sequence (A0A0H3C9Y4 entry or part of it, stated change not applied): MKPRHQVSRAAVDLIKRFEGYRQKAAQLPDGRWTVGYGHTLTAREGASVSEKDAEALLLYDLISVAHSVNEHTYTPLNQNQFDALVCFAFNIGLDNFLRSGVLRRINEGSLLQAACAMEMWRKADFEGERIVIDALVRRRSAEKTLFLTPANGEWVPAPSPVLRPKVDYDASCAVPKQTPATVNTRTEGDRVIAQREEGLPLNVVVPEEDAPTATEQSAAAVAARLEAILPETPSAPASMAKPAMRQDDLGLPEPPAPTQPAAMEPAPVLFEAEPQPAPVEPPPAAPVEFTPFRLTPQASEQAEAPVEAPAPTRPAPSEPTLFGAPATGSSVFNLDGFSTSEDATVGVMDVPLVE

- dissolution concentration of condensates [1]: 2 mM
- dissolution concentration of condensates [2]: 1 mM
SMILES: Nc1ncnc2c1ncn2[C@@H]1O[C@H](COP(=O)(O)OP(=O)(O)OP(=O)(O)O)[C@@H](O)[C@H]1O [ATP]
